How the values were obtained:
Format in all cases: in vivo
mouse locomotor activity = test: Mouse locomotor activity (LMA)
Description: Locomotor activity data were measured by an automated infrared photo-beam system in sound attenuating chambers controlled by Versamax® software, provided by Accuscan Instruments Inc. (Columbus, Ohio), which quantified beam breaks similar to the methods used previously ([Xu et al., 2000]). To test D1 receptor selectivity in a pharmacologic model, C57BL/6J mice were habituated to the apparatus for 90 min, followed by pretreatment with vehicle or SCH-23390 (0.01, 0.032, 0.1 0.32, s.c.) and returned to the apparatus for 30 min. […] Data were compared against the vehicle group using a repeated measures one-way ANOVA with a Dunnett’s post-test. To test D1 receptor selectivity in a genetic model, DRD1a WT and knockout mice (D1 KO) were habituated to the apparatus for 90 min, pretreated with vehicle or SCH-23390 (0.032 mg/kg, s.c.) and returned to the apparatus for 30 min. […] Data were compared within genotype using a two-way ANOVA with a Dunnett’s post-hoc test versus vehicle treated group.

[1] = system: mPFC low frequency delta activity; test: mPFC low frequency delta field potential oscillation power, anesthetized rat
Description: (§1) Experiments were performed on n=10 adult male Sprague-Dawley rats (275–305 g) under urethane anesthesia (1.5 g/kg, i.p.). The femoral vein was cannulated for i.v. administration of drugs. A stimulation electrode was placed in the CA1/subiculum region (coordinates: A-P = +6.3 mm, M–L = +5.2 mm, D-V = +8.0 mm) using stereotactic methods and unilateral local field potential (LFP) was recorded by a metal monopolar macroelectrode placed into the medial PFC (mPFC; coordinates: A-P = +3.0 mm, M-L = +0.6 mm, D-V = +5.0 mm). […] Evoked responses to the first and the second stimuli were identified (P1 and P2, respectively) and the amount of PPF determined by the formula: (P2 amplitude/P1 amplitude). Waveform averages used to calculate PPF consisted of 60 consecutive stimuli. Five minutes were allowed between administration of each drug dose and the starting of the subsequent average of each 10-min period after each cumulative dose (0.1–1 mg/kg, IV). Disruption in power of LFP delta activity was measured as the percentage of power in low frequency (0–1.8 Hz) irregular activity in the total (0–4 Hz) delta power range. LFP power spectra were determined during periods concurrent with waveform averages and PPF calculation. Statistical significance was determined by means of two-tailed paired Student’s t-test.

[2] = system: MK-801-disrupted paired-pulse facilitation; test: Paired-pulse facilitation (PPF), CA1/subiculum to mPFC, urethane-anesthetized rat
Description: as §1

[3] = system: prepulse inhibition of startle; test: Mouse prepulse inhibition (PPI) and acoustic startle; details: risperidone 0.56 mg/kg s.c., C57BL/6J mice
Description: Drug and behaviorally naïve adult male C57BL/6J mice (9–11 weeks of age; n=8 per dose group) were used for PPI experiments. Subjects were tested individually in SR-Lab acoustic startle chambers (San Diego Instruments, San Diego CA, USA) equipped with a restrainer mounted atop a piezoelectric accelerometer which measured transduced movement in response to the presentation of audio stimuli presented through a speaker mounted 20 cm above the animal. Subjects were acclimated to an anteroom adjacent to the testing room at minimum 60 min prior to testing. Test sessions began with a 5 min acclimation period to background noise (65 dB) followed by presentation of six randomized repetitions of the 120 dB startle stimulus (40 ms duration) presented alone or paired in combination with a pre-pulse stimulus of 68, 72, or 74 db (20 msec in duration) presented 80 msec prior to the 120 dB startle stimulus, which was equivalent to +3, +7, and +9 db over background noise, respectively. Data were also recorded for no stimulus values to evaluate background level of response. The inter-trial interval between stimulus presentations was randomized and ranged from 10 to 20 s. Test compounds were administered 30 min (s.c.) prior to testing. […] Percent PPI was calculated for each individual subject as the relative change in the 120 dB startle response in the presence of each prepulse intensity using the formula: 100-((prepulse-pulse)/pulse)*100 as previously described ([Ralph-Williams et al., 2003]).
The experiment was analyzed using a two-way mixed model ANOVA (lme4 library in R software). The model included prepulse stimulus intensity levels, treatment (as all combinations of pre-treatment and treatment), and their interaction as fixed factors and random intercept, random slope for each animal as random factors. […] In order to adjust for multiple hypothesis testing we used false discover rate method which controls the expected proportion of false discoveries among the rejected hypotheses. For all statistical tests, p < 0.05 between groups was considered significant.

[4] = system: conditioned avoidance responding; test: Rat conditioned avoidance response (CAR)
Description: The CAR assay was performed under similar conditions previously described ([Marquis et al., 2011]) at WuXiAppTec Inc. (Delin Rd. #90, Waigaoquiao Free Trade Zone, Shanghai 200131, China). For this study, adult male Fisher-344 rats were trained and tested in a two-way active avoidance apparatus with MED-PC software (MED Associates, St. Albans, VT, USA).
Briefly, subjects were handled and acclimated to the shuttle boxes for 2 d prior to training sessions. During training sessions, subjects were trained to avoid an electric footshock by moving to the adjacent, non-stimulus side of the shuttle box upon presentation of tone + light stimuli which preceded the presentation of the footshock (0.6 mA, 10 s duration) by 10 s. For this assay an avoidance was defined as moving to the adjacent compartment during the tone+light presentation that preceded the shock, an escape was defined as moving to the adjacent compartment upon presentation of the shock, and an escape failure was defined as a lack of relocation to the adjacent compartment throughout the presentation of the shock. Subjects received 30 trials of training per day for 5 d. Subjects with ≥ 80% avoidance responses on two consecutive days with no escape failures, were considered qualified for testing, and were randomized across treatment groups (n=8–9 per treatment group). […] Avoidance responding was calculated as % of the number of total trials in which an avoidance occurred. Data were calculated for each animal and compared across treatment groups using one-way ANOVA with Dunnett’s post-test versus the vehicle + vehicle treated group.

[5] = system: acetylcholine levels in the PFC of WT and D1 KO mice; test: Prefrontal cortex acetylcholine levels via microdialysis, WT and D1 KO mouse; details: SCH-23390 0.32 mg/kg SC, mice
Text: Adult male Sprague-Dawley rats (280–360 g) were obtained from Charles-River Laboratories, Raleigh, NC and male C57BL/6J DRD1a WT and D1 DA receptor knockout mice (DRD1a-905781) were obtained from The Jackson Laboratories (Bar Harbor, ME). Animals were housed on a 12-h light/dark cycle with free access to food and water and allowed to acclimate for at least 5 d after arrival. Aseptic technique was used during the surgical procedure in order to prevent infection. On the day of the procedure animals were anesthetized with isoflurane (4%) and their heads shaved. The animals were then placed into a Kopf stereotaxic frame, the surgical area disinfected by swabbing with Provodine solution, and the area isolated with a sterile surgical drape. Anesthesia was maintained with isoflurane (2.5%–3%) delivered through a nose cone using a Univentor 400 anesthesia unit. Animals were given a 0.1 ml subcutaneous (s.c.) injection of Metacam (NSAID, meloxicam, 5 mg/ml, Boehringer Ingelheim) as a post-operative analgesic. Marcaine (bupivacaine, 0.5%, Hospira, Lake Forest, IL), a long acting local anesthetic, was administered s.c. at the surgical area to minimize pain and discomfort.
A 1.5–2 cm incision was made along the midline of the skull, beginning from a point just behind the eyes and running posterior. The skin was retracted with hemostats and the skull was further exposed using blunt dissection with cotton swabs. Bleeding capillaries were cauterized, and the skull dried with a sterile gauze sponge.
A microdialysis guide cannula [Bioanalytical Systems Inc (BAS), West Lafayette, IN, part # MD-2251] was placed into a guide holder on the stereotaxic frame and positioned over “Bregma”. The guide cannula was positioned over the PFC (A-P, +3.2 mm; M-L, +0.7 mm, left, relative to bregma) and the location marked on the skull. Using a 0.7 mm burr, a hole was made in the skull at the cannula position. […]
For conventional analysis, ACh was analyzed by high performance liquid chromatography (HPLC) utilizing a modification of the BAS ACh-choline assay kit (BAS part # MF-8910). […]

NC[C@@H]1O[C@H](C23CC4CC(CC(C4)C2)C3)Cc2c1ccc(O)c2O [A-77636, reference compound]
locomotor activity, five consecutive days of dosing (mouse locomotor activity; 3.2 mg/kg s.c. daily, CD-1 mice): increased locomotor activity

C[C@]12N[C@H](Cc3ccccc31)c1ccccc12 [MK-801]
low frequency (0-1.8 Hz) irregular delta activity ([1]; MK-801 0.1 mg/kg IV (p=0.01)): significant increase | increase of P1 response amplitude ([2]; MK-801 0.1 mg/kg IV): 44% | increase of P2 response amplitude ([2]; MK-801 0.1 mg/kg IV): 10% | PPF ([2]; MK-801 0.1 mg/kg IV (p=0.04)): significant decrease

Cc1nc2n(c(=O)c1CCN1CCC(c3noc4cc(F)ccc34)CC1)CCCC2 [risperidone, reference compound]
%PPI [3]: produced an increase in %PPI | mean % avoidance responses ([4]; risperidone 0.1 mg/kg s.c.): 83.33% | mean % avoidance responses ([4]; risperidone 0.56 mg/kg s.c. (p<0.001)): 6.875%

CN1CCc2cc(Cl)c(O)cc2[C@@H](c2ccccc2)C1 [SCH-23390, reference compound]
effect on PF-6142-induced increase in PFC ACh level [5]: attenuated | effect on PF-6142-increased activity in WT mice (mouse locomotor activity; SCH-23390 0.032 mg/kg s.c. pretreatment): attenuated | effect on PF-6142 (10 mg/kg s.c.)-stimulated activity (mouse locomotor activity; SCH-23390 pretreatment 0.01, 0.032, 0.1, 0.32 mg/kg s.c.): blocked | mPFC low frequency delta activity ([1]; SCH-23390 0.32 mg/kg IV alone (p=0.19)): no significant effect | baseline P1 and P2 response amplitudes ([2]; SCH-23390 0.32 mg/kg IV): no effect | control PPF ([2]; SCH-23390 0.32 mg/kg IV (p=0.06)): no impact | effect on PF-6142 (1-3 mg/kg IV) reversal of MK-801 effects on PPF ([2]; SCH-23390 0.32 mg/kg IV pretreatment): block
